Reference: patent US11504367B2, “Compounds and methods for treating oxalate-related diseases” (OxaluRx, Inc., priority 2019, dated 2022)

What follows are compounds tested against recombinant full-length human hydroxyacid oxidase 1 (HAO1), the equivalents of hGOX (Homo sapiens (Human), UniProt Q9UJM8) (assay: In-vitro human glycolate oxidase (hGOX) assay (Amplex red fluorescence)). Conditions: 6 nM recombinant human GO, 85 μM glycolate, 10 min preincubation.
Assay type: biochemical
Procedure: The in-vitro glycolate oxidase assay was performed using recombinant full-length human hydroxyacid oxidase 1 (HAO1), the equivalents of hGOX. […] Purified HAO1 was dissolved in assay buffer consisting of 10 mM NaCl, 110 mM KCl, 2 mM MgCl2, 50 mM HEPES (pH 7.4), and 0.01% Triton™ X-100.
The plates were incubated for 10 min at room temperature, at which point Amplex red reagent (50 μM) was added.
The fluorescence intensity signal was measured on a VariosKan LUX instrument using an excitation of 560 nm and an emission of 590 nm. The IC50 values were calculated using Graphpad Prism. The fluorescence signal of wells containing only DMSO was defined as 100% GO activity, while the fluorescence signal without the glycolate substrate was defined as 0% GO activity.

recombinant full-length human hydroxyacid oxidase 1 (HAO1), the equivalents of hGOX, sequence (Q9UJM8 whole entry): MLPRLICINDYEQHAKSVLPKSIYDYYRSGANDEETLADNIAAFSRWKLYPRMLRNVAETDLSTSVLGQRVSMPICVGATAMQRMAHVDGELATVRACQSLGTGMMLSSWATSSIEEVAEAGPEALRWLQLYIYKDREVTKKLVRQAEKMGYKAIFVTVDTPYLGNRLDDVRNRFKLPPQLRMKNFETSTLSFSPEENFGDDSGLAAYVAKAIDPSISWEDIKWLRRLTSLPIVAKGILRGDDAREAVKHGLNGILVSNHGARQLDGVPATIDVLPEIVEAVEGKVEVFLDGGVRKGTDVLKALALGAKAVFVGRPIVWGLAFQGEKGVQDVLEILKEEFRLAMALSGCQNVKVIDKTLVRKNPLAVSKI

Q: Which IC50 does the source give for `CS(=O)(=O)c1cccc(C#Cc2cc(Oc3[nH]nnc3C(=O)O)ccc2F)c1` [Example 267, 5-(4-Fluoro-3-(2-(3-(methylsulfonyl)phenyl)ethynyl)phenoxy)-1H-1,2,3-triazole-4-carboxylic Acid] here?
A: 2 nM

Q: Which IC50 does the source give for `Cn1ccnc1C#Cc1ccc(Oc2[nH]nnc2C(=O)O)cc1` [Example 333, 5-(4-(2-(1-Methyl-1H-imidazol-2-yl)ethynyl)phenoxy)-1H-1,2,3-triazole-4-carboxylic Acid] here?
A: 10 nM

Q: `CC(C)C#Cc1ccc(Oc2[nH]nnc2C(=O)O)cc1` [Example 9, 5-(4-(3-Methylbut-1-ynyl)phenoxy)-1H-1,2,3-triazole-4-carboxylic Acid] was tested. Which IC50 did it give?
A: 62 nM

Q: For `CS(=O)(=O)c1cccc(C#Cc2cccc(Oc3[nH]nnc3C(=O)O)c2)c1` [Example 191, 5-(3-(2-(3-(Methylsulfonyl)phenyl)ethynyl)phenoxy)-1H-1,2,3-triazole-4-carboxylic Acid], which IC50 is on record?
A: 6 nM

Q: How did the IC50 turn out when `N#Cc1cccc(C#Cc2ccc(Oc3[nH]nnc3C(=O)O)cc2F)c1` [Example 270, 5-(4-((3-Cyanophenyl)ethynyl)-3-fluorophenoxy)-1H-1,2,3-triazole-4-carboxylic Acid] was run?
A: 1 nM

Q: How did the IC50 turn out when `O=C(O)c1nn[nH]c1Oc1cccc(C#Cc2ccccn2)c1` [Example 311, 5-(3-(2-(Pyridin-2-yl)ethynyl)phenoxy)-1H-1,2,3-triazole-4-carboxylic Acid] was run?
A: 3 nM

Q: With `CCOC(=O)c1c(Oc2ccc(C#CCC3CC3)cc2)n[nH]c1C` [Example 360, Ethyl 3-(4-(3-cyclopropylprop-1-ynyl)phenoxy)-5-methyl-1H-pyrazole-4-carboxylate] as the compound, how does the IC50 read?
A: > 1000 nM

Q: With `COc1ccc(Oc2[nH]nnc2C(=O)O)cc1C#Cc1ccccc1` [Example 264, 5-(4-Methoxy-3-(2-phenylethynyl)phenoxy)-1H-1,2,3-triazole-4-carboxylic Acid] as the compound, how does the IC50 read?
A: 20 nM

Q: For `CCOC(=O)c1nn[nH]c1Oc1cccc(C#CCC2CC2)c1` [Example 357, Ethyl 5-(3-(3-cyclopropylprop-1-ynyl)phenoxy)-1H-1,2,3-triazole-4-carboxylate], which IC50 is on record?
A: > 1000 nM

Q: For `O=C(O)c1nn[nH]c1Nc1ccc(C#CCC2CC2)cc1` [Example 362, 5-(4-(3-Cyclopropylprop-1-ynyl)phenylamino)-1H-1,2,3-triazole-4-carboxylic Acid], which IC50 is on record?
A: 230 nM

Q: `Cc1ccc(C#Cc2ccc(Oc3[nH]nnc3C(=O)O)cc2)cn1` [Example 297, 5-(4-(2-(6-Methylpyridin-3-yl)ethynyl)phenoxy)-1H-1,2,3-triazole-4-carboxylic Acid] was tested. Which IC50 did it give?
A: 3 nM

Q: `CC(C)(O)C#Cc1cccc(Oc2[nH]nnc2C(=O)O)c1` [Example 215, 5-(3-(3-Hydroxy-3-methylbut-1-ynyl)phenoxy)-1H-1,2,3-triazole-4-carboxylic Acid] was tested. Which IC50 did it give?
A: 48 nM

Q: For `COc1cccc(C#Cc2cccc(Oc3[nH]nnc3C(=O)O)c2)c1` [Example 287, 5-(3-(2-(3-Methoxyphenyl)ethynyl)phenoxy)-1H-1,2,3-triazole-4-carboxylic Acid], which IC50 is on record?
A: 4 nM

Q: Which IC50 does the source give for `Cn1ncc2ccc(C#Cc3cccc(Oc4[nH]nnc4C(=O)O)c3)cc21` [Example 319, 5-(3-(2-(1-Methyl-1H-indazol-6-yl)ethynyl)phenoxy)-1H-1,2,3-triazole-4-carboxylic Acid] here?
A: 2 nM

Q: For `O=C(O)c1nn[nH]c1Oc1cccc(C#Cc2ccc(F)cc2)c1` [Example 289, 5-(3-(2-(4-Fluorophenyl)ethynyl)phenoxy)-1H-1,2,3-triazole-4-carboxylic Acid], which IC50 is on record?
A: 1 nM

Q: With `Cn1ccnc1C#Cc1cccc(Oc2[nH]nnc2C(=O)O)c1` [Example 334, 5-(3-(2-(1-Methyl-1H-imidazol-2-yl)ethynyl)phenoxy)-1H-1,2,3-triazole-4-carboxylic Acid] as the compound, how does the IC50 read?
A: 5 nM

Q: How did the IC50 turn out when `CCOC(=O)c1c(Oc2cccc(C#CCC3CC3)c2)n[nH]c1C` [Example 358, Ethyl 3-(3-(3-cyclopropylprop-1-ynyl)phenoxy)-5-methyl-1H-pyrazole-4-carboxylate] was run?
A: > 1000 nM

Q: Which IC50 does the source give for `O=C(O)c1nn[nH]c1Oc1ccc(C#Cc2nccs2)cc1` [Example 341, 5-(4-(2-(Thiazol-2-yl)ethynyl)phenoxy)-1H-1,2,3-triazole-4-carboxylic Acid] here?
A: 28 nM

Q: How did the IC50 turn out when `CCOC(=O)c1nn[nH]c1Oc1cccc(C#CCC(C)(C)C)c1` [Example 371, Ethyl 5-(3-(4,4-dimethylpent-1-ynyl)phenoxy)-1H-1,2,3-triazole-4-carboxylate] was run?
A: > 1000 nM

Q: How did the IC50 turn out when `O=C(O)c1nn[nH]c1Oc1cccc(C#CCC2CC(F)(F)C2)c1` [Example 367, 5-(3-(3-(3,3-Difluorocyclobutyl)prop-1-ynyl)phenoxy)-1H-1,2,3-triazole-4-carboxylic Acid] was run?
A: 9 nM

Q: For `O=C(O)c1nn[nH]c1Oc1ccc(C#Cc2ccc(F)cc2)cc1` [Example 288, 5-(4-(2-(4-Fluorophenyl)ethynyl)phenoxy)-1H-1,2,3-triazole-4-carboxylic Acid], which IC50 is on record?
A: 1 nM

Q: `Cn1nccc1C#Cc1ccc(Oc2[nH]nnc2C(=O)O)cc1` [Example 321, 5-(4-(2-(1-Methyl-1H-pyrazol-5-yl)ethynyl)phenoxy)-1H-1,2,3-triazole-4-carboxylic Acid] was tested. Which IC50 did it give?
A: 5 nM

Q: `O=C(O)c1nn[nH]c1Oc1cccc(C#Cc2cnccn2)c1` [Example 338, 5-(3-(2-(Pyrazin-2-yl)ethynyl)phenoxy)-1H-1,2,3-triazole-4-carboxylic Acid] was tested. Which IC50 did it give?
A: 4 nM

Q: How did the IC50 turn out when `Cc1cc(C#Cc2ccc(Oc3[nH]nnc3C(=O)O)cc2)ccn1` [Example 298, 5-(4-(2-(2-Methylpyridin-4-yl)ethynyl)phenoxy)-1H-1,2,3-triazole-4-carboxylic Acid] was run?
A: 3 nM

Q: `CC(C)CC#Cc1cccc([S+]([O-])c2[nH]nnc2C(=O)O)c1` (centres unmarked) [Example 374, 5-(3-(4-Methylpent-1-ynyl)phenylsulfinyl)-1H-1,2,3-triazole-4-carboxylic Acid] was tested. Which IC50 did it give?
A: > 1000 nM

Q: For `Cn1cc(C#Cc2ccc(Oc3[nH]nnc3C(=O)O)cc2)ccc1=O` [Example 208, 4-(4-((1-Methyl-6-oxo-1,6-dihydropyridin-3-yl)ethynyl)phenoxy)-1H-1,2,3-triazole-5-carboxylic Acid], which IC50 is on record?
A: 2 nM

Q: `Cn1nccc1C#Cc1cccc(Oc2[nH]nnc2C(=O)O)c1` [Example 322, 5-(3-(2-(1-Methyl-1H-pyrazol-5-yl)ethynyl)phenoxy)-1H-1,2,3-triazole-4-carboxylic Acid] was tested. Which IC50 did it give?
A: 4 nM

Q: With `O=C(O)c1nn[nH]c1Oc1cccc(C#Cc2ccncc2)c1` [Example 313, 5-(3-(2-(Pyridin-4-yl)ethynyl)phenoxy)-1H-1,2,3-triazole-4-carboxylic Acid] as the compound, how does the IC50 read?
A: 3 nM

Q: How did the IC50 turn out when `O=C(O)c1nn[nH]c1Oc1cccc(C#CC2CCCCC2)c1` [Example 37, 5-(3-(2-Cyclohexylethynyl)phenoxy)-1H-1,2,3-triazole-4-carboxylic Acid] was run?
A: 8 nM

Q: For `Cn1ncc2ccc(C#Cc3ccc(Oc4[nH]nnc4C(=O)O)cc3)cc21` [Example 318, 5-(4-(2-(1-Methyl-1H-indazol-6-yl)ethynyl)phenoxy)-1H-1,2,3-triazole-4-carboxylic Acid], which IC50 is on record?
A: 2 nM

Q: For `O=C(O)c1nonc1Oc1cccc(C#CCC2CC2)c1` [Example 370, 4-(3-(3-Cyclopropylprop-1-ynyl)phenoxy)-1,2,5-oxadiazole-3-carboxylic Acid], which IC50 is on record?
A: > 1000 nM

Q: With `N#Cc1ccc(C#Cc2cc(F)cc(Oc3[nH]nnc3C(=O)O)c2)cc1` [Example 276, 4-(3-((4-Cyanophenyl)ethynyl)-5-fluorophenoxy)-1H-1,2,3-triazole-5-carboxylic Acid] as the compound, how does the IC50 read?
A: 3 nM

Q: How did the IC50 turn out when `COc1cc(C#Cc2ccc(Oc3[nH]nnc3C(=O)O)cc2)ccn1` [Example 283, 5-(4-(2-(2-Methoxypyridin-4-yl)ethynyl)phenoxy)-1H-1,2,3-triazole-4-carboxylic Acid] was run?
A: 3 nM

Q: How did the IC50 turn out when `O=C(O)c1ccc(C#Cc2cc(F)cc(Oc3[nH]nnc3C(=O)O)c2)cc1` [Example 265, 5-(3-Fluoro-5-(2-(4-carboxyphenyl)ethynyl)phenoxy)-1H-1,2,3-triazole-4-carboxylic Acid] was run?
A: 3 nM

Q: How did the IC50 turn out when `CS(=O)(=O)c1ccc(C#Cc2cc(F)cc(Oc3[nH]nnc3C(=O)O)c2)cc1` [Example 274, 5-(3-Fluoro-5-(2-(4-(methylsulfonyl)phenyl)ethynyl)phenoxy)-1H-1,2,3-triazole-4-carboxylic Acid] was run?
A: 5 nM

Q: How did the IC50 turn out when `O=C(O)c1nn[nH]c1Oc1ccc(C#Cc2cccc3cn[nH]c23)cc1` [Example 323, 5-(4-(2-(1H-Indazol-7-yl)ethynyl)phenoxy)-1H-1,2,3-triazole-4-carboxylic Acid] was run?
A: 5 nM

Q: For `N#Cc1cccc(C#Cc2cc(F)cc(Oc3[nH]nnc3C(=O)O)c2)c1` [Example 277, 4-(3-((3-Cyanophenyl)ethynyl)-5-fluorophenoxy)-1H-1,2,3-triazole-5-carboxylic Acid], which IC50 is on record?
A: 2 nM

Q: For `O=C(O)c1nn[nH]c1Oc1ccc(C#Cc2cn[nH]c2)cc1` [Example 178, 5-(4-(2-(1H-Pyrazol-4-yl)ethynyl)phenoxy)-1H-1,2,3-triazole-4-carboxylic Acid], which IC50 is on record?
A: 6 nM

Q: Which IC50 does the source give for `O=C(O)c1nn[nH]c1Oc1cccc(C#Cc2cccc(Cl)c2)c1` [Example 187, 5-(3-(2-(3-Chlorophenyl)ethynyl)phenoxy)-1H-1,2,3-triazole-4-carboxylic Acid] here?
A: 1 nM

Q: With `O=C(O)c1nn[nH]c1Oc1cccc(C#CC2CCC3(CC2)OCCO3)c1` [Example 351, 5-(3-(1,4-Dioxaspiro[4.5]decan-8-ylethynyl)phenoxy)-1H-1,2,3-triazole-4-carboxylic Acid] as the compound, how does the IC50 read?
A: 20 nM

Q: With `Cn1ncc2cc(C#Cc3ccc(Oc4[nH]nnc4C(=O)O)cc3)ccc21` [Example 316, 5-(4-(2-(1-Methyl-1H-indazol-5-yl)ethynyl)phenoxy)-1H-1,2,3-triazole-4-carboxylic Acid] as the compound, how does the IC50 read?
A: 2 nM
